Columns and labels:
[1] = tested on: antibody (anti-PSC1A, rabbit antisera); assay: Competitive ELISA: free FusC against antibody recognition of conjugate PSC2A; type: binding; details: Free FusC 6.5 μg/ml
Method: FIG. 5: Competitive ELISA detection of TAFC and FusC. A. Immobilised antigen was an equimolar combination of PSC2B and PSC3B (acetylated & non-acetylated cBSA-SMCC-FusC^Fe3+), coated at 2.5 μg/ml (250 ng/well). Murine antisera was used (1/1000) which was raised against KLH-sHSAB-ih/cTAFC(PSC1A & PSC1B); Competition antigens were either FusC or cTAFC (0-20 μg/ml, respectively). B. FusC detection by ELISA. Free FusC 6.5 μg/ml prevents antibody (anti-PSC1A, rabbit antisera) recognition of conjugate PSC2A (cBSA-SATA-SMCC-FusC).
Microtitre plates (Nunc Maxisorp™ available from Nunc A/S, Roskilde, Denmark) were coated with either FusC (range used for optimisation: 0-66 μg/ml) or an equimolar combination of PSC2B/PSC3B conjugates (range used for optimisation: 0-10 μg/ml) in 50 mM sodium carbonate pH 9.4 for 16 hr (100 μl/well). […] Finally the absorbance was measured at 450/620 nm using a Synergy plate reader and standard curves of A450/620 nm versus log FusC concentration (0-100 μg/ml (or 0-20 μg/ml TAFC) constructed, from which the concentration of FusC in normal clinical specimens, of animal and human origin, was computed.
For example, it was observed that FusC or TAFC, respectively, could be detected by ELISA using murine antisera [anti-KLH-sHSAB-ihTAFC or cTAFC] […]

[2] = tested on: rabbit Anti-FusC; assay: Protein immunoblot of gold nanoparticle conjugates; type: binding; details: serial dilutions
Method: Confirmation of conjugate formation was performed using a protein immunoblot. 4 μl of AuNP-FsC-BSA, Au-BSA and FusC-BSA samples were spotted onto a nitrocellulose membrane strip in serial dilutions (A-E) prepared in 2 mM borate (pH 9.0). Spots were allowed to dry before the strip was blocked for 30 min in Marvel (5% (w/v) in PBS). Membranes were then incubated for 30 min with primary antibody (rabbit Anti-FusC), diluted using blocking buffer (1/1000). Nitrocellulose blots were subsequently washed (2×5 min) in blocking solution and then incubated with a 1/1000 dilution of anti-rabbit IgG peroxidase-conjugated secondary antibody (Sigma-Aldrich), shaking for 30 min at room temperature. The nitrocellulose membranes were then washed extensively (2×5 min) in blocking solution and rinsed (2×5 min) with PBS. Immunoreactive samples were visualized using Pierce ECL Chemiluminescent Substrate (Fischer Scientific) for the detection of horseradish peroxidase.

Compound	antibody recognition of conjugate PSC2A (cBSA-SATA-SMCC-FusC) [1]	reactivity in immunoblot with rabbit Anti-FusC [2]
C/C1=C/C(=O)N(O)CCCC(N)C(=O)OCC/C(C)=C\C(=O)N(O)CCCC(N)C(=O)OCC/C(C)=C\C(=O)N(O)CCCC(N)C(=O)OCC1 (centres unmarked) [FusC, fusarinine C]	prevents	–
BSA-AuNP: negative control BSA gold nanoparticle conjugate	–	No reactivity is visible
